Measured values from BigSolDB 2.1.

N#CCC(N)=O
solubility (mole fraction) (in 1,4-dioxane, 288.15 K): 0.0127
solubility (mole fraction) (in 1,4-dioxane, 293.15 K): 0.0155
solubility (mole fraction) (in 1,4-dioxane, 298.15 K): 0.0186
solubility (mole fraction) (in 1,4-dioxane, 303.15 K): 0.0226
solubility (mole fraction) (in 1,4-dioxane, 308.15 K): 0.0278
solubility (mole fraction) (in 1,4-dioxane, 313.15 K): 0.0342
solubility (mole fraction) (in 1,4-dioxane, 318.15 K): 0.0407
solubility (mole fraction) (in DMF, 273.15 K): 0.254
solubility (mole fraction) (in DMF, 278.15 K): 0.262
solubility (mole fraction) (in DMF, 283.15 K): 0.271
solubility (mole fraction) (in DMF, 288.15 K): 0.283
solubility (mole fraction) (in DMF, 293.15 K): 0.295
solubility (mole fraction) (in DMF, 298.15 K): 0.309
solubility (mole fraction) (in DMF, 303.15 K): 0.325
solubility (mole fraction) (in DMF, 308.15 K): 0.343
solubility (mole fraction) (in DMF, 313.15 K): 0.36
solubility (mole fraction) (in DMF, 318.15 K): 0.382
solubility (mole fraction) (in THF, 273.15 K): 0.00988
solubility (mole fraction) (in THF, 278.15 K): 0.0112
solubility (mole fraction) (in THF, 283.15 K): 0.0128
solubility (mole fraction) (in THF, 288.15 K): 0.0145
solubility (mole fraction) (in THF, 293.15 K): 0.0164
solubility (mole fraction) (in THF, 298.15 K): 0.0187
solubility (mole fraction) (in THF, 303.15 K): 0.0209
solubility (mole fraction) (in THF, 308.15 K): 0.0236
solubility (mole fraction) (in THF, 313.15 K): 0.0268
solubility (mole fraction) (in THF, 318.15 K): 0.0301
solubility (mole fraction) (in acetone, 273.15 K): 0.0248
solubility (mole fraction) (in acetone, 278.15 K): 0.0286
solubility (mole fraction) (in acetone, 283.15 K): 0.0335
solubility (mole fraction) (in acetone, 288.15 K): 0.039
solubility (mole fraction) (in acetone, 293.15 K): 0.0453
solubility (mole fraction) (in acetone, 298.15 K): 0.0527
solubility (mole fraction) (in acetone, 303.15 K): 0.0612
solubility (mole fraction) (in acetone, 308.15 K): 0.0712
solubility (mole fraction) (in acetone, 313.15 K): 0.0833
solubility (mole fraction) (in acetone, 318.15 K): 0.0956
solubility (mole fraction) (in acetonitrile, 273.15 K): 0.0154
solubility (mole fraction) (in acetonitrile, 278.15 K): 0.0187
solubility (mole fraction) (in acetonitrile, 283.15 K): 0.0232
solubility (mole fraction) (in acetonitrile, 288.15 K): 0.0272
solubility (mole fraction) (in acetonitrile, 293.15 K): 0.0329
solubility (mole fraction) (in acetonitrile, 298.15 K): 0.0389
solubility (mole fraction) (in acetonitrile, 303.15 K): 0.0469
solubility (mole fraction) (in acetonitrile, 308.15 K): 0.0553
solubility (mole fraction) (in acetonitrile, 313.15 K): 0.0671
solubility (mole fraction) (in acetonitrile, 318.15 K): 0.0795
solubility (mole fraction) (in chloroform, 273.15 K): 0.000389
solubility (mole fraction) (in chloroform, 278.15 K): 0.000465
solubility (mole fraction) (in chloroform, 283.15 K): 0.000562
solubility (mole fraction) (in chloroform, 288.15 K): 0.000678
solubility (mole fraction) (in chloroform, 293.15 K): 0.000821
solubility (mole fraction) (in chloroform, 298.15 K): 0.000985
solubility (mole fraction) (in chloroform, 303.15 K): 0.00119
solubility (mole fraction) (in chloroform, 308.15 K): 0.00143
solubility (mole fraction) (in chloroform, 313.15 K): 0.00173
solubility (mole fraction) (in chloroform, 318.15 K): 0.00208
solubility (mole fraction) (in dichloromethane, 273.15 K): 0.000321
solubility (mole fraction) (in dichloromethane, 278.15 K): 0.000388
solubility (mole fraction) (in dichloromethane, 283.15 K): 0.000471
solubility (mole fraction) (in dichloromethane, 288.15 K): 0.000559
solubility (mole fraction) (in dichloromethane, 293.15 K): 0.000668
solubility (mole fraction) (in dichloromethane, 298.15 K): 0.000792
solubility (mole fraction) (in dichloromethane, 303.15 K): 0.000931
solubility (mole fraction) (in dichloromethane, 308.15 K): 0.00112
solubility (mole fraction) (in ethanol, 273.15 K): 0.00455
solubility (mole fraction) (in ethanol, 278.15 K): 0.00558
solubility (mole fraction) (in ethanol, 283.15 K): 0.00681
solubility (mole fraction) (in ethanol, 288.15 K): 0.0087
solubility (mole fraction) (in ethanol, 293.15 K): 0.0105
solubility (mole fraction) (in ethanol, 298.15 K): 0.0129
solubility (mole fraction) (in ethanol, 303.15 K): 0.0157
solubility (mole fraction) (in ethanol, 308.15 K): 0.0188
solubility (mole fraction) (in ethanol, 313.15 K): 0.0229
solubility (mole fraction) (in ethanol, 318.15 K): 0.0277
solubility (mole fraction) (in ethyl acetate, 273.15 K): 0.0043
solubility (mole fraction) (in ethyl acetate, 278.15 K): 0.00509
solubility (mole fraction) (in ethyl acetate, 283.15 K): 0.00602
solubility (mole fraction) (in ethyl acetate, 288.15 K): 0.00694
solubility (mole fraction) (in ethyl acetate, 293.15 K): 0.00829
solubility (mole fraction) (in ethyl acetate, 298.15 K): 0.00951
solubility (mole fraction) (in ethyl acetate, 303.15 K): 0.011
solubility (mole fraction) (in ethyl acetate, 308.15 K): 0.0128
solubility (mole fraction) (in ethyl acetate, 313.15 K): 0.0149
solubility (mole fraction) (in ethyl acetate, 318.15 K): 0.017
solubility (mole fraction) (in methanol, 273.15 K): 0.0126
solubility (mole fraction) (in methanol, 278.15 K): 0.0156
solubility (mole fraction) (in methanol, 283.15 K): 0.0186
solubility (mole fraction) (in methanol, 288.15 K): 0.0227
solubility (mole fraction) (in methanol, 293.15 K): 0.0273
solubility (mole fraction) (in methanol, 298.15 K): 0.0332
solubility (mole fraction) (in methanol, 303.15 K): 0.04
solubility (mole fraction) (in methanol, 308.15 K): 0.0482
solubility (mole fraction) (in methanol, 313.15 K): 0.0558
solubility (mole fraction) (in methanol, 318.15 K): 0.0674
solubility (mole fraction) (in methyl acetate, 273.15 K): 0.0115
solubility (mole fraction) (in methyl acetate, 278.15 K): 0.0137
solubility (mole fraction) (in methyl acetate, 283.15 K): 0.0163
solubility (mole fraction) (in methyl acetate, 288.15 K): 0.0195
solubility (mole fraction) (in methyl acetate, 293.15 K): 0.0228
solubility (mole fraction) (in methyl acetate, 298.15 K): 0.0263
solubility (mole fraction) (in methyl acetate, 303.15 K): 0.0307
solubility (mole fraction) (in methyl acetate, 308.15 K): 0.0355
solubility (mole fraction) (in methyl acetate, 313.15 K): 0.0408
solubility (mole fraction) (in methyl acetate, 318.15 K): 0.0467
solubility (mole fraction) (in n-butanol, 273.15 K): 0.00201
solubility (mole fraction) (in n-butanol, 278.15 K): 0.00246
solubility (mole fraction) (in n-butanol, 283.15 K): 0.00298
solubility (mole fraction) (in n-butanol, 288.15 K): 0.00377
solubility (mole fraction) (in n-butanol, 293.15 K): 0.00456
solubility (mole fraction) (in n-butanol, 298.15 K): 0.0055
solubility (mole fraction) (in n-butanol, 303.15 K): 0.00667
solubility (mole fraction) (in n-butanol, 308.15 K): 0.00797
solubility (mole fraction) (in n-butanol, 313.15 K): 0.00982
solubility (mole fraction) (in n-butanol, 318.15 K): 0.0119
solubility (mole fraction) (in n-propanol, 273.15 K): 0.0022
solubility (mole fraction) (in n-propanol, 278.15 K): 0.00274
solubility (mole fraction) (in n-propanol, 283.15 K): 0.00355
solubility (mole fraction) (in n-propanol, 288.15 K): 0.00461
solubility (mole fraction) (in n-propanol, 293.15 K): 0.00591
solubility (mole fraction) (in n-propanol, 298.15 K): 0.00755
solubility (mole fraction) (in n-propanol, 303.15 K): 0.00935
solubility (mole fraction) (in n-propanol, 308.15 K): 0.0117
solubility (mole fraction) (in n-propanol, 313.15 K): 0.0147
solubility (mole fraction) (in n-propanol, 318.15 K): 0.0182
solubility (mole fraction) (in water, 278.15 K): 0.0136
solubility (mole fraction) (in water, 283.15 K): 0.0179
solubility (mole fraction) (in water, 288.15 K): 0.0233
solubility (mole fraction) (in water, 293.15 K): 0.0313
solubility (mole fraction) (in water, 298.15 K): 0.0405
solubility (mole fraction) (in water, 303.15 K): 0.0519
solubility (mole fraction) (in water, 308.15 K): 0.0674
solubility (mole fraction) (in water, 313.15 K): 0.0887
solubility (mole fraction) (in water, 318.15 K): 0.114
